Measurements published in ChEMBL document CHEMBL1201862, “PubChem BioAssay data set” (2004).
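96-well plates; 48 h exposure; 5 concentrations. Endpoints by linear interpolation between flanking doses. Not reached: highest tested concentration assigned. The concentration for 50% growth inhibition is given as GI50.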 Calls of active or inactive are those of the source. Rule as the data show it: active = GI50 up to about 1.1 µM and inactive = higher.

Assays:
Test in all cases: inhibition of tumour cell growth, NCI panel, 48 h
TK-10 = tested on: TK-10
NCI/ADR-RES = tested on: NCI/ADR-RES
SF-539 = tested on: SF-539
A498 = tested on: A498
SK-MEL-2 = tested on: SK-MEL-2
HCT-116 = tested on: HCT-116
MDA-MB-435 = tested on: MDA-MB-435
OVCAR-3 = tested on: OVCAR-3
SNB-75 = tested on: SNB-75
RXF 393 = tested on: RXF 393
Hs-578T = tested on: Hs-578T
COLO 205 = tested on: COLO 205
DU-145 = tested on: DU-145
SW-620 = tested on: SW-620
NCI-H460 = tested on: NCI-H460
K562 = tested on: K562
MOLT-4 = tested on: MOLT-4
HOP-62 = tested on: HOP-62
HCT-15 = tested on: HCT-15
NCI-H23 = tested on: NCI-H23
UACC-62 = tested on: UACC-62
OVCAR-8 = tested on: OVCAR-8
UACC-257 = tested on: UACC-257
NCI-H226 = tested on: NCI-H226
CAKI-1 = tested on: CAKI-1
MCF7 = tested on: MCF7
ACHN = tested on: ACHN
SK-MEL-28 = tested on: SK-MEL-28
CCRF-CEM = tested on: CCRF-CEM
Malme-3M = tested on: Malme-3M
KM12 = tested on: KM12
SF-295 = tested on: SF-295
HT-29 = tested on: HT-29
MDA-MB-231 = tested on: MDA-MB-231
SF-268 = tested on: SF-268
RPMI-8226 = tested on: RPMI-8226
M14 = tested on: M14
SK-OV-3 = tested on: SK-OV-3
SK-MEL-5 = tested on: SK-MEL-5
786-0 = tested on: 786-0
PC-3 = tested on: PC-3
BT-549 = tested on: BT-549
HCC 2998 = tested on: HCC 2998
HL-60 = tested on: HL-60
SN12C = tested on: SN12C
A549 = tested on: A549
OVCAR-5 = tested on: OVCAR-5
U-251 = tested on: U-251
OVCAR-4 = tested on: OVCAR-4
NCI-H522 = tested on: NCI-H522
SNB-19 = tested on: SNB-19
MDA-N = tested on: MDA-N
T47D = tested on: T47D
IGROV-1 = tested on: IGROV-1
EKVX = tested on: EKVX
LOX IMVI = tested on: LOX IMVI
HOP-92 = tested on: HOP-92
SR = tested on: SR
UO-31 = tested on: UO-31

`CN(C)Cc1cc(C(C)(C)C)ccc1-c1ccc(C(C)(C)C)cc1CN(C)C` was tested, and the GI50 (TK-10) was > 100 µM (inactive), the GI50 (NCI/ADR-RES) was > 100 µM (inactive) and the GI50 (SF-539) was > 100 µM (inactive). For the same compound, the GI50 (A498) was 75.3 µM (inactive), the GI50 (SK-MEL-2) was > 100 µM (inactive) and the GI50 (HCT-116) was > 100 µM (inactive). The GI50 (MDA-MB-435) was 84.3 µM (inactive), the GI50 (OVCAR-3) was 43.3 µM (inactive) and the GI50 (SNB-75) was 88.1 µM (inactive). The GI50 (RXF 393) was > 100 µM (inactive), the GI50 (Hs-578T) was > 100 µM (inactive) and the GI50 (COLO 205) was 64.3 µM (inactive). The GI50 (DU-145) was > 100 µM (inactive), the GI50 (SW-620) was > 100 µM (inactive) and the GI50 (NCI-H460) was 96.8 µM (inactive). For the same compound, the GI50 (K562) was 40.7 µM (inactive), the GI50 (MOLT-4) was > 100 µM (inactive) and the GI50 (HOP-62) was > 100 µM (inactive). For the same compound, the GI50 (HCT-15) was > 100 µM, the GI50 (NCI-H23) was > 100 µM (inactive) and the GI50 (UACC-62) was > 100 µM (inactive). For the same compound, the GI50 (OVCAR-8) was > 100 µM (inactive), the GI50 (UACC-257) was 37.1 µM (inactive) and the GI50 (NCI-H226) was > 100 µM (inactive). The GI50 (CAKI-1) was > 100 µM (inactive), the GI50 (MCF7) was 66.7 µM (inactive) and the GI50 (ACHN) was > 100 µM (inactive). For the same compound, the GI50 (SK-MEL-28) was 41.1 µM (inactive), the GI50 (CCRF-CEM) was 56.8 µM (inactive) and the GI50 (Malme-3M) was 51.9 µM (inactive). The GI50 (KM12) was > 100 µM (inactive), the GI50 (SF-295) was > 100 µM (inactive) and the GI50 (HT-29) was 35 µM (inactive). For the same compound, the GI50 (MDA-MB-231) was > 100 µM (inactive), the GI50 (SF-268) was > 100 µM (inactive) and the GI50 (RPMI-8226) was 39.9 µM (inactive). For the same compound, the GI50 (M14) was 41.6 µM (inactive), the GI50 (SK-OV-3) was > 100 µM (inactive) and the GI50 (SK-MEL-5) was > 100 µM (inactive). The GI50 (786-0) was > 100 µM (inactive), the GI50 (PC-3) was 43.7 µM (inactive) and the GI50 (BT-549) was > 100 µM (inactive). The GI50 (HCC 2998) was 10.2 µM (inactive), the GI50 (HL-60) was > 100 µM (inactive) and the GI50 (SN12C) was > 100 µM (inactive). The GI50 (A549) was > 100 µM (inactive), the GI50 (OVCAR-5) was > 100 µM (inactive) and the GI50 (U-251) was 77.8 µM (inactive). For the same compound, the GI50 (OVCAR-4) was > 100 µM (inactive), the GI50 (NCI-H522) was 57.8 µM (inactive) and the GI50 (SNB-19) was > 100 µM (inactive). For the same compound, the GI50 (MDA-N) was > 100 µM (inactive), the GI50 (T47D) was > 100 µM (inactive) and the GI50 (IGROV-1) was > 100 µM (inactive). The GI50 (EKVX) was 62.2 µM (inactive), the GI50 (LOX IMVI) was > 100 µM (inactive) and the GI50 (HOP-92) was > 100 µM (inactive). The GI50 (SR) was > 100 µM (inactive) and the GI50 (UO-31) was 81.3 µM (inactive).
